The results in this text go back to patent US11692194B2, “Modulating expression of polypeptides via new gene switch expression systems” (Precigen, Inc., priority 2017, dated 2023).

“Also recorded” adds a separate entry of the source.

For the experiment, the system named is gene switch components VP16/RxR and Gal4/EcR controlling mbIL-15 in CD19 CAR-T cells. The experiment in a line: T cell activation and ligand specific control of mbIL-15 (NFAT6-IL2 promoter driven gene switch), flow cytometry. Type of experiment: cell-based, human. On the procedure: Sleeping Beauty transposons were designed to stably express CD19-specific CAR, a cell tag as well as gene switch-controlled mbIL-15. Expression of one or both of gene switch components (e.g. VP16/RxR and Gal4/EcR) were performed under the control of a T cell activation specific promoter. In this example, a T cell activation dependent promoter generated by 6×NFAT response element fused to minimal IL-2 promoter (NFAT6-IL2 promoter) was utilized to drive expression of gene switch components—VP16-RxR and/or Gal4-EcR fusion proteins for conditional expression of mbIL-15. When components of the gene switch are under the control of NFAT6-IL2 promoter, expression of mbIL-15 requires two conditions to be met: 1) T cells are activated; and 2) activator ligand, veledimex, to be present. SB transposons construct combinations shown in FIG. 20A were transfected along with SB11 transposase in donor T cells. […]
The following day (day 1) cells were counted, and CAR expression was measured by flow cytometry. […]
For flow cytometry analysis to assess expression of various markers and gene(s) of interest cells were gently resuspended and cell number and viability were measured using Trypan blue exclusion method with the Countess instrument. Cell diameter size was also recorded. […] The prepared antibody cocktails and associated fluorescence minus one/isotype control were added to stain the cell samples, and then the samples were incubated on ice for 30 min. […] All samples were run on a LSR II flow cytometer, a Fortessa X-20 flow cytometer (BD Biosciences) or iQue Screener Plus (Intellicyt) and data was analyzed using FlowJo V10 (TreeStar, Ashland, Oreg.) or iQue Screener software. […]
Non-activated or activated CAR-T cells were harvested and either 100 nM veledimex or DMSO (to keep DMSO concentration constant in both cultures) was added to the cultures. […] CAR and mbIL-15 expression was quantified in either resting (FIG. 20B) or activated T cells in presence of absence of veledimex (FIG. 20C: ConA 1 μg/mL; ConA 5 μg/mL: FIG. 20D, PMA/Ionomycin: FIG. 20E).
(In general: Flow cytometry measures light scatter and fluorescence of single cells or particles in a stream.)

Consider `CCC[C@@H](N(NC(=O)c1cccc(OC)c1CC)C(=O)c1cc(C)cc(C)c1)C(C)(C)C` [veledimex, N-[(1R)-1-(1,1-dimethylethyl)butyl]-N′-(2-ethyl-3-methoxybenzoyl)-3,5-dimethylbenzohydrazide], for which the “mbIL-15 expression in activated CAR-T cells with gene switch components under NFAT6-IL-2 promoter” value (constructs #3, 4 and 6, ConA 1 or 5 μg/mL or PMA/Ionomycin, 100 nM veledimex) was “exhibited expression of mbIL-15; also recorded: dependent on T cell activation (with addition of ConA) and presence of veledimex”. Also, the “mbIL-15 expression in absence of T cell activation” value (resting CAR-T cells, 100 nM veledimex, at least 24 hours) is “only CAR-T cells that harbor transposons for expression of gene switch components (e.g. VP16/RxR and Gal4/EcR) under a constitutive promoter were able to express mbIL-15”. In addition, under “veledimex at fixed concentration, ConA 1 vs 5 μg/mL”, the “levels of mbIL-15 expression versus level of T cell activation” value is recorded as “increased with level of T cells activation”.
